Data reported in patent US9827198B2, “Pharmaceutical dosage forms comprising sodium-1-[6-(morpholin-4-yl)pyrimidin-4-yl]-4-(1H-1,2,3-triazol-1-yl)-1H-pyrazol-5-olate” (Bayer Pharma Aktiengesellschaft, priority 2013, dated 2017).
Where a name gives a salt, the structure may show the parent alone.

Experiments:
Format in all cases: physicochemical
[1] = Solubility of active ingredient salts in water
[2] = Effect of light on active ingredient (I) or tablet cores; conditions: active ingredient (I) or the tablet cores
[3] = Compatibility with polyethylene glycol used in the film coating; conditions: at high active ingredient concentrations
[4] = Stability with respect to uptake or release of water under varying atmospheric humidity; conditions: varying conditions of atmospheric humidity; compared with compound of the formula (II)

Row | SMILES | Solubility in water at 25° C. [1] [mg/100 mL] | Effect of light [2] | Compatibility with polyethylene glycol used in the film coating [3] | solubility ([1]; 25° C.) [mg/mL] | Stability with respect to uptake or release of water [4]
1 | [Al+3].[O-]c1c(-n2ccnn2)cnn1-c1cc(N2CCOCC2)ncn1.[O-]c1c(-n2ccnn2)cnn1-c1cc(N2CCOCC2)ncn1.[O-]c1c(-n2ccnn2)cnn1-c1cc(N2CCOCC2)ncn1 [Aluminium salt] | 6 |  |  |  | 
2 | Oc1c(-n2ccnn2)cnn1-c1cc(N2CCOCC2)ncn1 [Sodium salt (active ingredient (I)), sodium 1-[6-(morpholin-4-yl)pyrimidin-4-yl]-4-(1H-1,2,3-triazol-1-yl)-1H-pyrazol-5-olate] |  | brown discolouration | physical incompatibility with polyethylene glycol | 26.2 | significantly higher stability with respect to uptake or release of water
